Results on 2 molecules are retold here after US4481193A, “Des-proline vasopressin antagonists” (SmithKline Beckman Corporation, priority 1984, dated 1984).

In general, Ki refers to the dissociation constant of the complex between target and ligand, obtained from inhibition or displacement.

Structures are written as SMILES. *1 amine or outer side, *2 acyl side, *3 side chain or, on linkers, in order; H or OH if unused. Where a SMILES comes first, the peptide text is derived from it. Bridges are numbered along the chain shown (N, C = ends). [ ]: non-standard residue; d: D form. X1 = O=C(CC1(S[*:2])CCCCC1)[*:1]

The target of assay [1] is T1, vasopressin stimulated adenylate cyclase (Sus scrofa, UniProt P32307).
T1 construct: from tissue; host or cells: hog kidney medullary membranes
T1 sequence (P32307 whole entry): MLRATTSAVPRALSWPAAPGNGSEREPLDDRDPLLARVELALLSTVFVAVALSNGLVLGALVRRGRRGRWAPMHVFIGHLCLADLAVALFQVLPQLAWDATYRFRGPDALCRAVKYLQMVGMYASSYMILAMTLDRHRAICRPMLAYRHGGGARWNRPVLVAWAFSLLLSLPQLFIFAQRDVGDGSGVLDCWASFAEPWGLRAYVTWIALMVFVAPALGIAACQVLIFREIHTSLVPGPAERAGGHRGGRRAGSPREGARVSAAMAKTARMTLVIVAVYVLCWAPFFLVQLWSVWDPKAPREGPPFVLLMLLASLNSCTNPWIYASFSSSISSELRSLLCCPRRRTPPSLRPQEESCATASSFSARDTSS
Briefly: Vasopressin stimulated adenylate cyclase activity, hog kidney medullary membrane. It is filed as biochemical. As to conditions: antagonism of vasopressin stimulated adenylate cyclase, read-out: In Vitro (Pig) Ki. The protocol:
(§1) Antagonistic activity toward the natural antidiuretic hormone (anti-ADH activity) is determined, in vitro, in the medullary tissue of hog or human kidneys and, in vivo, in the hydropenic rat. The in vitro assay procedures for vasopressin stimulated adenylate cyclase activation or vasopression binding activity are described by F. Stassen et al., J. Pharmacology and Experimental Therapeutics, 223, 50-54 (1982).
In the test procedure for assay of adenylate cyclase activity, the amount of ^32 P/cAMP formed in the absence of medullary membrane is determined (blank). The blank value is substracted from all experimental data. The compound is tested for its effect on basal adenylate cyclase activity and/or on vasopressin stimulated activity. Each determination is carried out in triplicate. The Ka value is derived from a Lineweaver-Burkeplot. Rel. Vmax =(Vmax drug/Vmax vasopressin)×100. Ki =I/[Ka'/Ka)-1] where I is the concentration of the antagonist, and Ka' and Ka are the concentrations of vasopressin required to give half-maximal activity of adenylate cyclase in the presence and absence of antagonist, respectively.

Assay [2] has as its target T2, vasopressin stimulated adenylate cyclase (Homo sapiens, UniProt P30518).
T2 construct: from tissue; host or cells: human kidney medullary membranes
Briefly: Vasopressin stimulated adenylate cyclase activity, human kidney medullary tissue. It is filed as biochemical. As to conditions: read-out: In Vitro (Human) Ki. The method, then: as §1

Assay [3] concerns the target T3, vasopressin receptors (V2 -receptors) (Sus scrofa, UniProt P32307).
T3 construct: from tissue; host or cells: hog kidney medullary membranes
As to the kind of experiment: 3H-vasopressin binding assay, hog kidney membranes. As to conditions: competitive inhibition of 3H-vasopressin binding, KB = IC50/(1+L/KD), read-out: In Vitro (Pig) KB. The protocol: as §1
In the test procedure for binding assays, the amount of ^3 H-vasopressin bound in the absence and in the presence of an excess of vasopressin (7.5×10^-6 M) is measured in triplicate. These values represent total and non-specific binding, respectively. […] This is the average KD value determined on 3 preparations of hog kidney membranes.

The test system of another assay is hydropenic rat. As to the kind of experiment: Hydropenic rat screen (anti-ADH activity in vivo). As to conditions: estimated dose delivered ip which reduces Uosm from hydropenic levels to 300 mOsmoles/kg H2O; male rats. The method, then:
as §1
The assay for anti-ADH activity is the hydropenic rat protocol is described below:
Food and water are removed from male rats approximately 18 hours prior to testing. Animals are housed 4 per metabolism cage. At 0 hour, the test compound is administered intraperitoneally to the test group and an equivalent volume of vehicle is administered to both control groups (fasted and non-fasted). Urine volume and osmolality are measured every hour for 4 hours. Test values are recorded as ml of urine excreted (cumulative), mEq/rat electrolyte excreted, mg/rat urea excreted, and osmolality in milli-Osmoles/kg H2 O. A tolerance test is used to determine significance. ED300 is defined as the dose of compound (μg/kg) required to lower urine osmolality to 300 m-Osmoles/kg.

T3 sequence (P32307 whole entry): as above
T2 sequence (P30518 whole entry): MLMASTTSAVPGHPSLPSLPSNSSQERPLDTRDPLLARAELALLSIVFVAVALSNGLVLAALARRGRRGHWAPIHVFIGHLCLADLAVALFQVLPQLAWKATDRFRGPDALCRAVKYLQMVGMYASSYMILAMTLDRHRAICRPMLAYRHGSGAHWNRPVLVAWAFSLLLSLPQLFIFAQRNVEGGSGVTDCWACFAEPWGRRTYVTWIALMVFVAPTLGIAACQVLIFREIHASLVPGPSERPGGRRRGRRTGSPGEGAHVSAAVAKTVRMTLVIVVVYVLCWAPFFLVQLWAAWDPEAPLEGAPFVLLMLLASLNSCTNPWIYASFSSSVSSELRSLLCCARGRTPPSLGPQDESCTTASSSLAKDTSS

`CCOc1ccc(C[C@H]2NC(=O)CC3(CCCCC3)SSC[C@@H](C(=O)N[C@@H](CCCN=C(N)N)C(=O)NCC(N)=O)NC(=O)[C@H](CC(N)=O)NC(=O)[C@H](C(C)C)NC(=O)[C@H](Cc3ccccc3)NC2=O)cc1` [A] ([dY](Et)FVNCRG-NH2; linker N-5 via X1): the results for the Ki in assay [1] and in assay [2] were 2.7 nM and 9.8 nM, respectively. Further, in assay [3], the Kb was found to be 17 nM.

In the case of `CCOc1ccc(C[C@H]2NC(=O)CC3(CCCCC3)SSC[C@@H](C(=O)N3CCC[C@H]3C(=O)N[C@@H](CCCNC(=N)N)C(=O)NCC(N)=O)NC(=O)[C@H](CC(N)=O)NC(=O)[C@H](C(C)C)NC(=O)[C@H](Cc3ccccc3)NC2=O)cc1` [B, [mercapto-β,cyclopentamethylenepropionic acid)2-(O--ethylD-tyrosine)-4-valine-8-argininevasopressin] ([dY](Et)FVNCPRG-NH2; linker N-5 via X1 (inferred); C-terminus assumed), in the assay with hydropenic rat, the “In Vivo (Rat) ED300” value was 0.011 mg/kg.
